Assay results published in publication PMC12737277, “Ecotoxicity of Nitrated Monoaromatic Hydrocarbons in Aquatic Systems: Emerging Risks from Atmospheric Deposition of Biomass Burning and Anthropogenic Aerosols” (Toxics, 2025).
Where two headings read alike, the source gives them in different places.

How the values were obtained:
Oct1 = target: T1, Oct1 (Danio rerio, UniProt A0A8N1Z2B5); experiment: inhibition of ASP+ uptake in transfected cells, fluorescence; type: cell-based; settings: 0.5 µM ASP+, mock cells subtracted
T1 construct: gene slc22a2; full-length transporter stably expressed in Flp-In-293 cells (Flp-In-293-drOct1)
T1 sequence (A0A8N1Z2B5 1-562): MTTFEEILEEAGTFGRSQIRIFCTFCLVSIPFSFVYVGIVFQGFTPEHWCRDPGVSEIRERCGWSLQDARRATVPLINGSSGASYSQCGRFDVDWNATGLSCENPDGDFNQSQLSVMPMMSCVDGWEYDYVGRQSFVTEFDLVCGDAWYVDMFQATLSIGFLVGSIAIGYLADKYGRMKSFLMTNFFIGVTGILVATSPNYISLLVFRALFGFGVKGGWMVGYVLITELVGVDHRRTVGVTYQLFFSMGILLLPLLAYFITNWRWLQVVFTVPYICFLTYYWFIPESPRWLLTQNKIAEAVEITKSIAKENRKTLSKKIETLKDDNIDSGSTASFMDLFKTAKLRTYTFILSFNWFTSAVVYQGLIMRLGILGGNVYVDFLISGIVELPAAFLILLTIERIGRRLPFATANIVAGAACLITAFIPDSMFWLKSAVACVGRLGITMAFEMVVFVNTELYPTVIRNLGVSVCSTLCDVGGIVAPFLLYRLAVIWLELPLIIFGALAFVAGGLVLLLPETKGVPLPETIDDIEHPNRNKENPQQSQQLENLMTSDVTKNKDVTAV

Oatp1d1 = target: T2, Oatp1d1 (Danio rerio, UniProt A0A8M9PU70); experiment: inhibition of Lucifer yellow uptake in transfected cells, fluorescence; type: cell-based
T2 construct: gene slco1d1; full-length transporter stably expressed in Flp-In-293 cells (Flp-In-293-drOatp1d1)
T2 sequence (A0A8M9PU70 1-689): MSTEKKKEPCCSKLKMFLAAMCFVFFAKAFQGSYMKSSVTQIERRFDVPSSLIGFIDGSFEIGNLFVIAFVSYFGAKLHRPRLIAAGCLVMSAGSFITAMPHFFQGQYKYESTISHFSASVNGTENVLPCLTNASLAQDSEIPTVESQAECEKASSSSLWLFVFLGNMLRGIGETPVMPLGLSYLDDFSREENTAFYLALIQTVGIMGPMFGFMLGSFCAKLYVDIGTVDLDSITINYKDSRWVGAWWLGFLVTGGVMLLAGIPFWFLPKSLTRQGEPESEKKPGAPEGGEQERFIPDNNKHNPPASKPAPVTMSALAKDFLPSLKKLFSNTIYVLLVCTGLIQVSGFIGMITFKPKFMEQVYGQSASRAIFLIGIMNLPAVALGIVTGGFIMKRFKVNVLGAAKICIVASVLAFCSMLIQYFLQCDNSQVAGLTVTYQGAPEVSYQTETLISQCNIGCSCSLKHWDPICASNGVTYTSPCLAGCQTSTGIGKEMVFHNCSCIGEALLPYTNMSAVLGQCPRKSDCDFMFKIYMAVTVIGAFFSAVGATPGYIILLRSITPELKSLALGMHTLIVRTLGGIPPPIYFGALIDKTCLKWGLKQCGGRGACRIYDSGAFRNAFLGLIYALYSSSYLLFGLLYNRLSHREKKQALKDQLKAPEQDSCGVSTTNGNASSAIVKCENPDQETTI

[1] = 50 µM Lucifer yellow, mock cells subtracted

Compound	IC50 (Oct1)	IC50 (Oatp1d1; [1])	IC50 (Oct1; read-out: IC50 (converted)) [µM]	IC50 (Oatp1d1; read-out: IC50 (converted)) [µM]
Cc1c([N+](=O)[O-])ccc(O)c1O [3M4NC]	particularly 3M5NC, 3M4NC, and 4NC, exhibited the strongest interactions with Oct1	all compounds except 4NP showed interaction with LY uptake	–	–
O=C(O)c1cccc([N+](=O)[O-])c1O [3NSA]	–	all compounds except 4NP showed interaction with LY uptake	496	–
Cc1cc([N+](=O)[O-])cc(O)c1O [3M5NC]	particularly 3M5NC, 3M4NC, and 4NC, exhibited the strongest interactions with Oct1	all compounds except 4NP showed interaction with LY uptake	–	–
COc1cc([N+](=O)[O-])cc(OC)c1O [4NS]	All tested NMAHs interfered with ASP+ uptake via Oct1	all compounds except 4NP showed interaction with LY uptake	–	–
O=C(O)c1cc([N+](=O)[O-])ccc1O [5NSA]	–	–	529	14.2
O=[N+]([O-])c1ccc(O)c(O)c1 [4NC]	particularly 3M5NC, 3M4NC, and 4NC, exhibited the strongest interactions with Oct1	all compounds except 4NP showed interaction with LY uptake	–	–
O=[N+]([O-])c1ccc(O)cc1 [4NP]	–	–	–	> 719
